# Assay results reported in US5273985A, “Glycerin derivative and its pharmacological use” (Eisai Co., Ltd., priority 1988, dated 1993).
# How the values were obtained:
# [1] = test system: blood pressure drop induced by PAF; experiment: Action on the blood pressure drop induced by PAF; format: in vivo, F344 rats; details: Rattus norvegicus, iv, 0.05 h, i.v., three minutes after 0.5 μg/kg PAF, ratio of blood pressure rise to drop, read-out: Recovery rate
# Experimental: Action on the Blood Pressure Drop Induced by […]
# Cannulae were inserted into the carotid and the jugular of each of F344 rats anesthetized with Pento (50 mg/kg, i. p.). The blood pressure was determined at the carotid and 0.5 ml/kg of PAF or the test compound was given through the jugular. Three minutes after the injection of 0.5 μg/kg of PAF, the test compound was given and the antagonism thereof was evaluated.
# The recovery rate shown in Table 4 is the ratio of the blood pressure rise by the test compound to the drop thereof.
# [2] = test system: platelet agglutination caused by PAF; experiment: Inhibition of platelet agglutination caused by human PAF (platelet-rich plasma, optical method of Born); format: cell-based; details: PAF at minimum concentration for maximum agglutination, read-out: Agglutination inhibiting activity IC50
# Experimental: Effect on the Agglutination Caused by Human PAF
# One part by volume of a 3.8% sodium citrate solution was added to 9 parts by volume of blood sampled from the forearm of a healthy adult to whom had been administered no medicine for at least two weeks. A platelet-rich plasma (PRP) was prepared by centrifugation. The inhibition of the platelet agglutination was determined by an optical method of Born et al. with a Hematolaser II® (a platelet agglutination meter of Niko Bioscience Co.). PAF was dissolved in Tyrode solution [Ca^++ (+)] to form a solution having the minimum concentration for causing the maximum agglutination. The test compound was dissolved in a physiological saline.
# The agglutination inhibiting activity of the test compound was determined from the rate of inhibition of the maximum light transmittance (maximum agglutination rate) caused by PAF in control PRP. IC50 was determined from the inhibition curve.
# The numeral in the column of the Test compound in Table 1 refers to the Example number of the compound.
# Human PAF Receptor = molecular target: T1, Human PAF Receptor (Homo sapiens, UniProt P25105); experiment: Human PAF receptor binding assay (3H-PAF, platelets); details: 3H-PAF 0.6 to 1 nM, 37° C., read-out: PAF receptor antagonism IC50
# T1 construct: The platelets were sampled from healthy males by an ordinary method; endogenous in cells; host or cells: human platelets from healthy males (intact platelet suspension)
# T1 sequence (P25105 whole entry): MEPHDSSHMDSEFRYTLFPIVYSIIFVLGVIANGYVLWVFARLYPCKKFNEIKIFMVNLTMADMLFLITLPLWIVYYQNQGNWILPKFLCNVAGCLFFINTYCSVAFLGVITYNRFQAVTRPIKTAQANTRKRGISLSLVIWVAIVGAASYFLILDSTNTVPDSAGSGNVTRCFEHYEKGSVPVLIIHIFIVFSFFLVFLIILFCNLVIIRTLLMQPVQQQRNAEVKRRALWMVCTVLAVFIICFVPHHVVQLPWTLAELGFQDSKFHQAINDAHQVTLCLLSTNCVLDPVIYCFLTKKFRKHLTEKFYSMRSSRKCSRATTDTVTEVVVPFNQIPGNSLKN
# Experimental: Human PAF Receptor Binding Assay
# The platelets were sampled from healthy males by an ordinary method and suspended in a binding buffer [10 mM phosphate-buffered saline (pH 7.0) containing 0.1 w/v % of BSA and 0.9 mM of CaCl2) to form a suspension having a concentration of 10^8 /460 μl. 20 μl of a solution of the test compound in the binding buffer was placed in a polypropylene tube and then 460 μl of the platelet suspension was added thereto. The mixture was subjected to a vortex treatment and then incubated at 37° C. for 6 min. 20 μl of a solution of ^3 H-PAF in the binding buffer (final ^3 H-PAF concentration: 0.6 to 1 nM) was added thereto and the mixture was incubated for 6 min. 3 ml of a washing solution (saline containing 0.1 w/v % of BSA) cooled with ice was added thereto to terminate the reaction. The reaction mixture was filtered by suction through a glass filter (Whatman GF/C). The glass filter was dried and the radioactivity thereof was determined with a liquid scintillation counter.
# The inhibition % was calculated according to the following equation and IC50 so was determined by interpolation from the figure. [formula] wherein: total binding: dpm obtained when the concentration of the medicine or PAF is 0,
# non-specific binding: dpm obtained when 10^-5 M of cold PAF was added.
# [3] = Determination of stability in aqueous solution; format: physicochemical; details: pH 7.4, 37° C., 0.5M sodium phosphate; for half-life: read-out: Half-value period of disappearance due to hydrolysis (t1/2) (converted)
# Experimental: Determination of Stability in Aqueous Solution
# These compounds were unstable in a neutral or alkaline aqueous solution mainly due to the hydrolysis reaction of the N-acetyl or N-benzoyl group. The relationships between the pH and decomposition rate of several compounds were examined to find that they have the same pattern. The decomposition rate constant under conditions (pH 7.4, 37° C.) where they were relatively easily decomposed was determined and the stabilities of the compounds were compared with one another.
# 9 parts by volume of a buffer solution (0.5M sodium phosphate, pH 7.4) was added to 1 part by volume of an aqueous sample solution (1 mg/ml) and the mixture was kept at 37° C. The sampling was conducted at appropriate time intervals and the residual rate of an unreacted compound was determined by reversed phase high-performance liquid chromatography. Since the decomposition rate of most of the compounds can be approximately represented by the first-order decomposition rate equation, the decomposition rate constant was determined by the least squares method.
IC50 [2],IC50 (Human PAF Receptor),half-life [3],Half-value period of disappearance due to hydrolysis (t1/2) [3],Compound,inhibition in vivo at 1 mg/kg [1],inhibition in vivo at 0.01 mg/kg [1],inhibition in vivo at 0.1 mg/kg [1]
44 nM,0.19 nM,26.1 h,,"CCCCCCCCCCCCCCCCCCNC(=O)OCCCNC(=O)OCC(COC(=O)N(Cc1cccc[n+]1CC)C(=O)c1ccccc1OC)OC (stereo not drawn) [Example 14, 1-Ethyl-2-[N-(2-methoxy)benzoyl-N-{2-methoxy-3-(3-octadecylcarbamoyloxy)propylcarbamoyloxy}propoxycarbonyl]aminomethylpyridinium chloride]",,96.8%,
2600 nM,,,,"CCOC(=O)C1CCC(CNC(=O)OCC(COC(=O)N(Cc2cccc[n+]2CC)C(=O)c2ccccc2OC)OC)CC1 (stereo not drawn) [Example 7, 1-Ethyl-2-[N-{3-(4-ethoxycarbonyl)cyclohexylmethyl-carbamoyloxy-2-methoxy}propyloxycarbonyl-N-(2-methoxy)benzoyl]aminomethylpyridinium iodide]",,,
310 nM,300 nM,,,"CC[n+]1ccccc1CN(C(=O)OCC(COC(=O)NCC1CCCO1)OC)C(=O)c1ccccc1OC (stereo not drawn) [Example 3, 1-Ethyl-2-[N-(2-methoxy)benzoyl-N-{2-methoxy-3-(2-tetrahydrofuranyl)methyl}carbamoyloxypropoxycarbonyl]aminomethylpyridinium chloride]",,,
210 nM,1.9 nM,,,"CC[n+]1ccccc1CN(C(=O)OCC(COC(=O)NCCCCCCCCCCNC(=O)N(C)C)OC)C(=O)c1ccccc1OC (stereo not drawn) [Example 5, 1-Ethyl-2-[N-{3-(10-N,N-dimethylcarbamylamino)decylcarbamoyloxy-2-methoxypropyloxy}carbonyl-N-(2-methoxy)benzoyl]aminomethylpyridinium chloride]",,,
140 nM,3.5 nM,,,"CCCCCCCCCCCCCCCCCCOCCCNC(=O)OCC(COC(=O)N(Cc1cccc[n+]1CC)C(=O)c1ccccc1OC)OC (stereo not drawn) [Example 4, 1-Ethyl-2-[N-(2-methoxy)benzoyl-N-{2-methoxy-3-(3-octadecyloxy)propylcarbamoyloxy}propoxycarbonyl]-aminomethylpyridinium chloride]",,,
86 nM,25 nM,,,"CCCCCCCCCCCCCCCCCC(=O)N1CCN(C(=O)OCC(COC(=O)N(Cc2cccc[n+]2CC)C(=O)c2ccccc2OC)OC)CC1 (stereo not drawn) [Example 11, 1-Ethyl-2-[N-(2-methoxy)benzoyl-N-(2-methoxy-3-(4-stearoylpiperazinocarbonyl)oxypropyloxy}carbonyl]aminomethylpyridinium iodide]",,,
300 nM,16 nM,,,"CCCCCOCCCCCOCCCCCNC(=O)OCC(COC(=O)N(Cc1cccc[n+]1CC)C(=O)c1ccccc1OC)OC (stereo not drawn) [Example 10, 1-Ethyl-2-[N-{3-(6,12-dioxaheptadecyl)carbamoyloxy-2-methoxypropyloxy}carbonyl-N-(2-methoxy)benzoyl]aminomethylpyridinium iodide]",,42.5%,59.6%

# The remaining lines, values behind:
Compound,IC50 [2],IC50 (Human PAF Receptor),half-life [3],Half-value period of disappearance due to hydrolysis (t1/2) [3],inhibition in vivo at 1 mg/kg [1],inhibition in vivo at 0.01 mg/kg [1],inhibition in vivo at 0.1 mg/kg [1]
"CC[n+]1ccccc1CN(C(C)=O)C(=O)OCC(COC(=O)Nc1cc(OC)c(OC)c(OC)c1)OC (stereo not drawn) [Example 1, 1-Ethyl-2-[N-acetyl-N-{2-methoxy-3-(3,4,5-trimethoxy)phenylcarbamoyloxypropoxy}carbonyl]aminomethylpyridinium iodide]",380 nM,,,,21.7%,,
CC[n+]1ccccc1CN(C(C)=O)C(=O)OCC(COCCc1cc(OC)c(OC)c(OC)c1)OC (stereo not drawn) [Example 16],380 nM,3500 nM,,,67.8%,,
"CC[n+]1ccccc1CN(C(=O)OCC(COC(=O)Nc1ccc2c(c1)Cc1ccccc1-2)OC)C(=O)c1ccccc1OC (stereo not drawn) [Example 2, 1-Ethyl-2-[N-{3-(2-fluoreneamino)carbonyloxy-2-methoxypropyloxy}carbonyl-N-(2-methoxy)benzoyl]aminomethylpyridinium chloride]",62 nM,8.9 nM,,,,79.2%,97.4%
"CC[n+]1ccccc1CN(C(=O)OCC(COCc1cc(OC)c(OC)c(OC)c1)OC)C(=O)N(C)C (stereo not drawn) [Example 22, 1-ethyl-2-(((N-(N,N-dimethyl)carbamyl-N-((2-methoxy-3-(3,4,5-trimethoxy)benzyloxypropyloxy))carbonyl))) aminomethylpyridinium iodide]",,,,infinite,,,
"CC[n+]1ccccc1CN(C(=O)OCC(COC(=O)NCCc1ccc(S(N)(=O)=O)cc1)OC)C(=O)c1ccccc1OC (stereo not drawn) [Example 8, 1-Ethyl-2-[N-(2-methoxy)benzoyl-N-{2-methoxy-3-(2-(4-sulfamoylphenyl)ethylcarbamoyloxy)propyloxy}carbonyl]aminomethylpyridinium iodide]",110 nM,140 nM,,,,70.1%,96.7%
"CC[n+]1ccccc1CN(C(=O)OCC(COCc1cc(OC)c(OCC2CCCCC2)c(OC)c1)OC)C(=O)c1ccccc1OC (stereo not drawn) [Example 20, 1-ethyl-2-(((N-((3-(4-cyclohexylmethoxy-3,5-dimethoxy)benzyloxy-2-methoxy))propyloxycarbonyl-N-(2-methoxy)benzoyl))) aminomethylpyridinium chloride]",250 nM,9.1 nM,,,91.1%,,
"CC[n+]1ccccc1CN(C(=O)OCC(COC(=O)NCCCC(=O)N1CCOCC1)OC)C(=O)c1ccccc1OC (stereo not drawn) [Example 9, 1-Ethyl-2-[N-(2-methoxy)benzoyl-N-{3-(3-morpholinocarbonylpropan-1-yl)carbamoyloxy-2-methoxypropyloxy}carbonyl]aminomethylpyridinium chloride]",260 nM,790 nM,,,,,
"CC[n+]1ccccc1CN(C(C)=O)C(=O)OCC(COc1cc(OC)c(OC)c(OC)c1)OC (stereo not drawn) [Example 17, 1-ethyl-2-(((N-acetyl-N-((2-methoxy-3-(3,4,5-trimethoxy)phenoxypropyloxy))carbonyl))) aminomethyl pyridium iodide]",340 nM,3500 nM,,,97.5%,,
"CC[n+]1ccccc1CN(C(=O)OCC(COC(=O)NCc1ccc(S(=O)(=O)NCC2CCCCC2)cc1)OC)C(=O)c1ccccc1OC (stereo not drawn) [Example 12, 1-Ethyl-2-[N-{3(4-cyclohexylmethylsulfamoyl)benzylcarbamoyloxy-2-methoxypromyloxy}carbonyl-N-(2-methoxy)benzoyl]aminomethylpyridinium chloride]",31 nM,,,,,,
"CC[n+]1ccccc1CN(C(=O)OCC(COCc1ccc(-c2ccccc2)cc1)OC)C(=O)c1ccccc1OC (stereo not drawn) [Example 19, 1-ethyl-2-(((N-((3-(4-biphenylmethyloxy-2-methoxypropyloxy))carbonyl-N-(2-methoxy)benzoyl)))aminomethylpyridinium chloride]",25 nM,2.2 nM,,,74.9%,,
CC[n+]1ccccc1CN1C(=O)CN(CC(COCc2cc(OC)c(OC)c(OC)c2)OC)C1=O (stereo not drawn) [Example 23],700 nM,,361 h,,,,
